Results on 41 compounds are retold here after ChEMBL document CHEMBL5532652, “Design and synthesis of pterostilbene derivatives bearing triazole moiety that might treat DSS-induced colitis in mice through modulation of NF-κB/MAPK signaling pathways” (Eur J Med Chem, 2024).

Series [1] can be described thus: Cytotoxicity against mouse RAW264.7 cells assessed as reduction in cell viability at 20 uM incubated for 24 hrs in absence of LPS by MTT assay. The series is classed as toxicity, cell-based.
The subject of series [2] is RAW264.7. The experiment in a line: Anti-inflammatory activity in mouse RAW264.7 cells assessed as inhibition of LPS-induced NO production at 10 uM incubated pretreated with compound for 1 hr followed by LPS-induction and measured after 24 hrs by Griess reagent based assay relative to control. The series is classed as functional. As to conditions: time 25 hrs.
The subject of series [3] is RAW264.7. Description: Anti-inflammatory activity in mouse RAW264.7 cells assessed as inhibition of LPS-induced NO production incubated pretreated with compound for 1 hr followed by LPS-induction and measured after 24 hrs by Griess reagent based assay. The series is classed as functional, cell-based.
Series [4] in a line: Cytotoxicity against mouse RAW264.7 cells assessed as reduction in cell viability at 20 uM incubated for 24 hrs in presence of LPS by MTT assay. Type of series: toxicity, cell-based.
For series [5], the system named is RAW264.7. The experiment in a line: Cytotoxicity against mouse RAW264.7 cells assessed as reduction in cell viability at 20 uM incubated for 24 hrs by MTT assay. Type of series: toxicity, cell-based. As to conditions: raw264.7, 24 h.
Series [6] can be described thus: Toxicity in C57BL/6 mouse assessed as body weight loss at 200 mg/kg, po measured for 7 days. Type of series: organism-based. As to conditions: in vivo, 168 h, time 7 day.

Take `C=CCCOc1ccc(/C=C/c2cc(OC)cc(OC)c2-c2cnnn2C(=O)NCCCC)cc1`: the IC50 at 24 h in series [1] and in series [4] was greater than 50 µM in each case. For the same compound, the inhibition at 10 µM in series [2] is 50.6%. For the same compound, in series [3], the IC50 was found to be 10.4 µM.
Regarding `CCOc1ccc(/C=C/c2cc(OC)cc(OC)c2-c2cnn[nH]2)cc1`, the Activity result in series [5] is reported as “Non-Toxic”.
Same read-out and setting: in the case of `CCOCCOc1ccc(/C=C/c2cc(OC)cc(OC)c2-c2cnn[nH]2)cc1` it was “Non-Toxic”; in that of `COc1cc(/C=C/c2ccc(OCC3CC3)cc2)c(-c2cnn[nH]2)c(OC)c1`, “Non-Toxic”.
In the case of `COc1ccc(/C=C/c2cc(OC)cc(OC)c2-c2cnn[nH]2)cc1`, in series [5], the Activity entry is reported as “Non-Toxic”.
`C=CCCCOc1ccc(/C=C/c2cc(OC)cc(OC)c2-c2cnnn2C(=O)NCC)cc1`: the IC50 at 24 h in series [1] and in series [4] was greater than 50 µM throughout. Besides, the inhibition at 10 µM in series [2] came to 49.6%. Besides, in series [3], the IC50 stood at 12.3 µM.
As for `C=CCCCOc1ccc(/C=C/c2cc(OC)cc(OC)c2-c2cnnn2C(=O)NC(C)C)cc1`, the IC50 at 24 h in series [1] and in series [4] was greater than 50 µM throughout. The inhibition at 10 µM in series [2] turned out to be 53.4%. The IC50 in series [3] is 9.83 µM.
In the case of `CCCCOc1ccc(/C=C/c2cc(OC)cc(OC)c2-c2cnn[nH]2)cc1`, the Activity result in series [5] is given as “Non-Toxic”.
Take `C=CCOc1ccc(/C=C/c2cc(OC)cc(OC)c2-c2cnnn2C(=O)NC(C)C)cc1`: the IC50 at 24 h in series [1] and in series [4] was greater than 50 µM in each case. In addition, the inhibition at 10 µM in series [2] is 75%. Further, in series [3], the IC50 is 8 µM.
In the case of `C=CCCCOc1ccc(/C=C/c2cc(OC)cc(OC)c2-c2cnnn2C(=O)NCCCl)cc1`, the half-maximal inhibitory concentration (IC50) at 24 h in series [1] and in series [4] was greater than 50 µM throughout. Besides, in series [2], the inhibition at 10 µM was 85.9%. For the same compound, the IC50 in series [3] worked out at 2 µM.
For `C=CCCOc1ccc(/C=C/c2cc(OC)cc(OC)c2-c2cnnn2C(=O)NCC)cc1`, the IC50 at 24 h in series [1] and in series [4] was greater than 50 µM throughout. Further, the inhibition at 10 µM in series [2] was 46.3%. In addition, the half-maximal inhibitory concentration (IC50) in series [3] was 13.4 µM.
In the case of `COc1cc(/C=C/c2ccc(OCC3CCCC3)cc2)c(-c2cnn[nH]2)c(OC)c1`, the Activity entry in series [5] is “Non-Toxic”.
As for `C=CCCOc1ccc(/C=C/c2cc(OC)cc(OC)c2-c2cnnn2C(=O)NCCCl)cc1`, the concentration for half-maximal inhibition (IC50) at 24 h in series [1] and in series [4] was greater than 50 µM in each case. Besides, in series [2], the inhibition at 10 µM turned out to be 96.9%. Moreover, the IC50 in series [3] stood at 1.4 µM.
On to `C=CCCCOc1ccc(/C=C/c2cc(OC)cc(OC)c2-c2cnnn2C(=O)NCCc2ccccc2)cc1`, for which the IC50 at 24 h in series [1] and in series [4] was greater than 50 µM each time. Further, the inhibition at 10 µM in series [2] was 67.8%. Besides, in series [3], the IC50 was found to be 6.5 µM.
Turning to `COc1cc(/C=C/c2ccc(OCc3ccc(C)cc3)cc2)c(-c2cnn[nH]2)c(OC)c1`, in series [5], the Activity result is “Non-Toxic”.
`C=CCOc1ccc(/C=C/c2cc(OC)cc(OC)c2-c2cnn[nH]2)cc1`: the IC50 at 24 h in series [1] and in series [4] was greater than 50 µM in each case. Also, the inhibition at 10 µM in series [2] was found to be 53.7%. Also, the Activity entry in series [5] is given as “Non-Toxic”. Moreover, the IC50 in series [3] is 10.8 µM.
In the case of `C=CCCCOc1ccc(/C=C/c2cc(OC)cc(OC)c2-c2cnnn2C(=O)NCCC)cc1`, the 50% inhibitory concentration (IC50) at 24 h in series [1] and in series [4] was greater than 50 µM in each case. Besides, the inhibition at 10 µM in series [2] came out at 55.5%. In addition, the IC50 in series [3] amounted to 6.2 µM.
Consider `C=CCCOc1ccc(/C=C/c2cc(OC)cc(OC)c2-c2cnnn2C(=O)NCCc2ccccc2)cc1`, for which the IC50 at 24 h in series [1] and in series [4] was greater than 50 µM each time. The inhibition at 10 µM in series [2] is 64.6%. The IC50 in series [3] was 9.46 µM.
`C=CCOc1ccc(/C=C/c2cc(OC)cc(OC)c2-c2cnnn2C(=O)NCC)cc1`: the IC50 at 24 h in series [1] and in series [4] was greater than 50 µM in each case. Further, the inhibition at 10 µM in series [2] is 67.3%. Further, in series [3], the IC50 was found to be 8.16 µM.
For `COc1cc(/C=C/c2ccc(OCc3ccc(OC(F)(F)F)cc3)cc2)c(-c2cnn[nH]2)c(OC)c1`, the Activity result in series [5] is on record as “Non-Toxic”.
As for `COc1cc(/C=C/c2ccc(OCc3cc(F)cc(F)c3)cc2)c(-c2cnn[nH]2)c(OC)c1`, the Activity result in series [5] is recorded as “Non-Toxic”.
Take `COCCCCOc1ccc(/C=C/c2cc(OC)cc(OC)c2-c2cnn[nH]2)cc1`: the Activity entry in series [5] is “Non-Toxic”.
Consider `COc1cc(/C=C/c2ccc(OCCc3ccccc3)cc2)c(-c2cnn[nH]2)c(OC)c1`, for which, in series [5], the Activity result is on record as “Non-Toxic”.
On to `C=CCOc1ccc(/C=C/c2cc(OC)cc(OC)c2-c2cnnn2C(=O)NCCCC)cc1`, for which the 50% inhibitory concentration (IC50) at 24 h in series [1] and in series [4] was greater than 50 µM in each case. Moreover, in series [2], the inhibition at 10 µM came to 50%. For the same compound, the IC50 in series [3] came out at 11.7 µM.
As to `C=CCCCOc1ccc(/C=C/c2cc(OC)cc(OC)c2-c2cnn[nH]2)cc1`, the IC50 at 24 h in series [1] and in series [4] was greater than 50 µM each time. Also, the inhibition at 10 µM in series [2] was determined as 62.2%. Moreover, in series [5], the Activity result was “Non-Toxic”. For the same compound, the IC50 in series [3] turned out to be 6.18 µM.
With `C=CCOc1ccc(/C=C/c2cc(OC)cc(OC)c2-c2cnnn2C(=O)NCCC)cc1`, the IC50 at 24 h in series [1] and in series [4] was greater than 50 µM in each case. The inhibition at 10 µM in series [2] worked out at 81.1%. In addition, the IC50 in series [3] worked out at 2.6 µM.
On to `C=C(C)COc1ccc(/C=C/c2cc(OC)cc(OC)c2-c2cnnn2C(=O)NCCCC)cc1`, for which the IC50 at 24 h in series [1] and in series [4] was greater than 50 µM in each case. In series [2], the inhibition at 10 µM was found to be 54.6%. Also, the half-maximal inhibitory concentration (IC50) in series [3] was 12.8 µM.
Consider `C=CCCOc1ccc(/C=C/c2cc(OC)cc(OC)c2-c2cnnn2C(=O)NC(C)C)cc1`, for which the IC50 at 24 h in series [1] and in series [4] was greater than 50 µM in each case. In series [2], the inhibition at 10 µM was 61.3%. The IC50 in series [3] amounted to 7.91 µM.
Take `COc1cc(/C=C/c2ccc(OC(=O)N(C)C)cc2)c(-c2cnn[nH]2)c(OC)c1`: in series [5], the Activity entry was “Non-Toxic”.
Regarding `O=C(O)c1cc(/N=N/c2ccc(S(=O)(=O)Nc3ccccn3)cc2)ccc1O` [SULFASALAZINE], the Activity entry in series [6] is given as “Non-Toxic”.
For the compound `C=CCCOc1ccc(/C=C/c2cc(OC)cc(OC)c2-c2cnn[nH]2)cc1`, the IC50 at 24 h in series [1] and in series [4] was greater than 50 µM throughout. The inhibition at 10 µM in series [2] worked out at 46.9%. Further, in series [5], the Activity entry was “Non-Toxic”. The IC50 in series [3] came to 14.4 µM.
For `C=C(C)COc1ccc(/C=C/c2cc(OC)cc(OC)c2-c2cnn[nH]2)cc1`, the half-inhibitory concentration (IC50) at 24 h in series [1] and in series [4] was greater than 50 µM in each case. Moreover, in series [2], the inhibition at 10 µM worked out at 74.2%. Also, the Activity entry in series [5] is recorded as “Non-Toxic”. Besides, the IC50 in series [3] stood at 7.15 µM.
As for `C=CCOc1ccc(/C=C/c2cc(OC)cc(OC)c2-c2cnnn2C(=O)NCCc2ccccc2)cc1`, the IC50 at 24 h in series [1] and in series [4] was greater than 50 µM in each case. For the same compound, the inhibition at 10 µM in series [2] is 45.3%. Besides, the concentration for half-maximal inhibition (IC50) in series [3] was found to be 14 µM.
Consider `C=CCCOc1ccc(/C=C/c2cc(OC)cc(OC)c2-c2cnnn2C(=O)NCCC)cc1`, for which the 50% inhibitory concentration (IC50) at 24 h in series [1] and in series [4] was greater than 50 µM throughout. Moreover, the inhibition at 10 µM in series [2] amounted to 72.7%. The IC50 in series [3] came out at 3.15 µM.
On to `C=C(C)COc1ccc(/C=C/c2cc(OC)cc(OC)c2-c2cnnn2C(=O)NCCC)cc1`, for which the IC50 at 24 h in series [1] and in series [4] was greater than 50 µM each time. In addition, the inhibition at 10 µM in series [2] is 77.5%. In series [3], the IC50 is 6.2 µM.
With `C=C(C)COc1ccc(/C=C/c2cc(OC)cc(OC)c2-c2cnnn2C(=O)NCCc2ccccc2)cc1`, the IC50 at 24 h in series [1] and in series [4] was greater than 50 µM each time. Moreover, the inhibition at 10 µM in series [2] came out at 42.6%. The IC50 in series [3] came to 14.9 µM.
Consider `CCOC(=O)COc1ccc(/C=C/c2cc(OC)cc(OC)c2-c2cnn[nH]2)cc1`, for which, in series [5], the Activity result is “Non-Toxic”.
As to `C=CCCCOc1ccc(/C=C/c2cc(OC)cc(OC)c2-c2cnnn2C(=O)NCCCC)cc1`, the IC50 at 24 h in series [1] and in series [4] was greater than 50 µM each time. Besides, the inhibition at 10 µM in series [2] amounted to 60%. In addition, the IC50 in series [3] was 8.66 µM.
For `C=C(C)COc1ccc(/C=C/c2cc(OC)cc(OC)c2-c2cnnn2C(=O)NCC)cc1`, the IC50 at 24 h in series [1] and in series [4] was greater than 50 µM throughout. Also, the inhibition at 10 µM in series [2] worked out at 43.6%. For the same compound, the IC50 in series [3] was determined as 15.2 µM.
In the case of `C=C(C)COc1ccc(/C=C/c2cc(OC)cc(OC)c2-c2cnnn2C(=O)NC(C)C)cc1`, the IC50 at 24 h in series [1] and in series [4] was greater than 50 µM in each case. Further, in series [2], the inhibition at 10 µM is 48.2%. The IC50 in series [3] worked out at 16 µM.
Turning to `COc1cc(/C=C/c2ccc(OCc3ccc(Br)cc3)cc2)c(-c2cnn[nH]2)c(OC)c1`, the Activity result in series [5] is “Non-Toxic”.
